The text below walks through data of ChEMBL document CHEMBL1159022, “Isolation of Latrunculin A, 6,7-Epoxylatrunculin A, Fijianolide A, and Euryfuran from a New Genus of the Family Thorectidae” (J Nat Prod, 1992).

Converted amounts (≈) assume the structure as drawn.

A short description of assay [1]: Inhibition of PMA-induced mouse EL-4.IL-2 cell adhesion at 0.003 ug/ml. The assay is classed as functional.
The next assay concerns A549. As to the kind of experiment: Antiproliferative activity against human A549 cells. The assay is classed as functional, cell-based.
Another assay concerns Candida albicans. As to the kind of experiment: Antifungal activity against Candida albicans. The assay is classed as functional.
The next assay concerns P388. As to the kind of experiment: Antiproliferative activity against mouse P388 cells. It counts as functional, cell-based.
A short description of assay [2]: Inhibition of PMA-induced mouse EL-4.IL-2 cell adhesion at 0.025 ug/ml. It counts as functional.
The species named for a further assay is Mus musculus. Briefly: Inhibition of mouse EL-4.IL-2 cell adhesion at 0.003 to 0.025 ug/ml in absence of PMA. The assay is classed as functional. The conditions noted are these: filed as agonist.
Assay [3] can be described thus: Inhibition of PMA-induced mouse EL-4.IL-2 cell adhesion at 0.125 ug/ml. The assay is classed as functional.

In general, inhibition refers to the relative decrease from the control value, in per cent. Read a low inhibition as little suppression. One may read the IC50 as the concentration that inhibits the measured activity by half. Broadly, the MIC is the smallest concentration in the dilution series that meets the test's criterion for growth inhibition. Low readings indicate a more susceptible organism, high ones a less susceptible organism.

In assay [1], `C/C1=C/C(=O)O[C@@H]2C[C@@H](CC[C@H](C)/C=C\C3OC3CC1)O[C@@](O)([C@@H]1CSC(=O)N1)C2` (stereo partly drawn) [6,7-EPOXYLATRUNCULIN A] yielded an inhibition at 0.003 µg/mL of 100%. Besides, the IC50 stood at 0.2 µg/mL (≈ 0.457 µM) in the assay with A549 and 1.8 µg/mL (≈ 4.11 µM) in the assay on P388. Besides, the MIC in the assay on Candida albicans is 25 µg/mL (≈ 57.1 µM).
With `CC1(C)CCC[C@@]2(C)c3cocc3CC[C@H]12` [EURYFURAN], the results for the IC50 with A549 and in the assay on P388 were 1.5 µg/mL (≈ 6.87 µM) and 1.6 µg/mL (≈ 7.33 µM), respectively. In assay [2], this compound came in with an inhibition at 0.025 µg/mL of 48%.
On to `C=C1C[C@H](C)C[C@@H]2CC=C[C@@H](C/C=C\C(=O)O[C@H]3C[C@@H](O[C@H]3/C=C/[C@@H]3CC(C)=CCO3)[C@@H](O)[C@@H](O)C1)O2` [FIJIANOLIDE A], for which, in the assay listed under Mus musculus, the Activity entry was “Agonist”. In addition, the IC50 in the assay with A549 came out at 1.4 µg/mL (≈ 2.72 µM); in the assay with P388, 1 µg/mL (≈ 1.94 µM). Moreover, in the assay on Candida albicans, it took 6.2 µg/mL (≈ 12 µM) to inhibit growth (MIC).
Take `C/C1=C/C(=O)O[C@@H]2C[C@@H](CC[C@H](C)/C=C\C=C\CC1)O[C@@](O)([C@@H]1CSC(=O)N1)C2` [LATRUNCULIN A]: the inhibition at 0.125 µg/mL in assay [3] turned out to be 50%. It took 15.6 µg/mL (≈ 37 µM) to inhibit growth against Candida albicans (MIC).
